Columns and labels:
[1] = molecular target: T1, UGT 1A1 (Homo sapiens, UniProt P22309); experiment: Inhibition of recombinant UGT 1A1 supersomes by diclofenac, probe compound 3138; type: biochemical; conditions: 0.1 mg/mL Supersomes, 20 μM compound 3138, 90 minutes at 37° C.
T1 construct: purchased BD Gentest; host or cells: insect cells (microsomes)
T1 sequence (P22309 26-533): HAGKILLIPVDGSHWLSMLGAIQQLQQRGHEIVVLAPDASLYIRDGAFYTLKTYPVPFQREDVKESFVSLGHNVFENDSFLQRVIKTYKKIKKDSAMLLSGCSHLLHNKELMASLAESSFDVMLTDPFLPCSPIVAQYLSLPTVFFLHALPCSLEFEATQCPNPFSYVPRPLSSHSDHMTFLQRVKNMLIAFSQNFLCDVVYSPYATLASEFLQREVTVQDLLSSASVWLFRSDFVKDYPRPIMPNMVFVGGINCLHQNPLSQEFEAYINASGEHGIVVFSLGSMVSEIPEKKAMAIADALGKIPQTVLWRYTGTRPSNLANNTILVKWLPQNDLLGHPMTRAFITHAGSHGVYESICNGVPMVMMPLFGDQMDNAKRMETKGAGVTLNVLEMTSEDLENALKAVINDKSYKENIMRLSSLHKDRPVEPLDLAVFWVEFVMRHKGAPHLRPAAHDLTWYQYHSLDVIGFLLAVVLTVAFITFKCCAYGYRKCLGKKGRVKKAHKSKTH
Procedure: The invention includes a method of determining activity of the uridine 5′-diphospho-glucuronosyltransferase (UDP-glucuronosyltransferase, or UGT) family enzymes in vitro. […] Following the UGT enzyme reaction, an equal volume of P450-Glo Luciferin Detection Reagent (Promega) containing 15-30 mM D-cysteine-HCl.H2O (Sigma) was added and the plate was mixed and incubated at room temperature, typically for 20-30 minutes. P450-Glo Luciferin Detection Reagent can be prepared by dissolving a vial of Promega Luciferin Detection Reagent (Promega Part #V859B) with a vial of Promega P450-Glo Buffer (Promega Part #V865B).
(§1) During this incubation, the cysteine reacts with the cyanobenzathiozole substrate to yield a D-luciferin derivative. […] Therefore, activity of the UGT enzyme can be measured by analyzing the difference (lower or no output) in relative light units (RLU) of a sample in which glucuronidation occurs compared to a sample that was run under the same conditions with no added UDPGA cofactor.

[2] = tested on: UGT isozymes; conditions: cited from earlier work
[3] = tested on: UGT activity in human liver microsomes (HLM); experiment: Inhibition of UGT activity in human liver microsomes by diclofenac (titration), probe compound 3138; type: biochemical; conditions: 0.1 mg/mL HLM, 50 μM compound 3138, 15 minutes at 37° C.; read-out: EC50, inhibition of HLM utilization of compound 3138
Procedure: The invention includes a method of determining activity of the uridine 5′-diphospho-glucuronosyltransferase (UDP-glucuronosyltransferase, or UGT) family enzymes in vitro. Briefly, UGT enzymes from overexpressed insect microsomes (Supersomes™, BD Gentest™) or animal tissue microsomes (Xenotech, BD Gentest™) were incubated with a cyanobenzothiazole substrate of the invention and the cofactor UDP-glucuronic acid (UDPGA) at 37° C. in buffer at physiological pH containing MgCl2 and alamethicin (typically, 50 mM TES, pH 7.5, 8 mM MgCl2, 4 mM UDPGA (Sigma) and 25 μg/mL alamethicin (Sigma)). […]
as §1
All reactions contained 50 mM TES, pH 7.5, 8 mM MgCl2, 25 μg/mL alamethicin, 0.1 mg/mL HLM, and 50 μM compound 3138, plus or minus 4 mM UDPGA. […] After 20 minutes at room temperature, RLU were read on a luminometer.

In the case of `O=C(O)Cc1ccccc1Nc1c(Cl)cccc1Cl` [Diclofenac], the IC50 [1] is listed as 232 µM, the “Isozymes Modulated” value ([2]; isozymes currently reported in the literature to be modulated by the compound) is listed as “Inhibits most isozymes” and the “inhibition of UGT isozymes as reported in the literature” value ([2]; literature report) is listed as “reported to inhibit UGT 1A1, 1A3, 1A6, 1A7, 1A8, 1A9, 1A10, 2B7, 2B15, and 2B17”. The EC50 [3] was 60 µM.
